Source: US7138361B2, “Herbicidal heterocycles” (E. I. du Pont de Nemours and Company, priority 2000, dated 2006)

Assays:
Format in all cases: in vivo
[1] = test system: common ragweed (Ambrosia elatior); experiment: Test C preemergence
Summary of the method: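 Visual 0–100 rating vs controls (0 = no effect, 100 = complete control) at 12–14 d, greenhouse. Compounds in non-phytotoxic solvent + surfactant; pre: sprayed after seeding; post: 1–4-leaf plants, 2–18 cm.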

[2] = test system: giant foxtail (Setaria faberii); experiment: Test C postemergence
Description: (§1) Seeds of plant species selected from bermudagrass (Cynodon dactylon), Surinam grass (Brachiaria decumbens), cocklebur (Xanthium strumarium), corn (Zea mays), crabgrass (Digitaria sanguinalis), woolly cupgrass (Eriochloa villosa), giant foxtail (Setaria faberii), goosegrass (Eleusine indica), johnsongrass (Sorghum halepense), kochia (Kochia scoparia), lambsquarters (Chenopodium album), morningglory (Ipomoea hederacea), yellow nutsedge (Cyperus esculentus), pigweed (Amaranthus retroflexus), common ragweed (Ambrosia elatior), soybean (Glycine max) and velvetleaf (Abutilon theophrasti) were planted and treated preemergence with test chemicals formulated in a non-phytotoxic solvent mixture which included a surfactant.
(§2) At the same time, plants selected from these crop and weed species and also winter barley (Hordeum vulgare), blackgrass (Alopecurus myosuroides), canary grass (Phalaris minor), chickweed (Stellaria media), downy brome (Bromus tectorum), green foxtail (Setaria viridis), Italian ryegrass (Lolium multiflorum), wheat (Triticum aestivum), wild oat (Avena fatua) and windgrass (Apera spica-venti) were treated with postemergence applications of some of the test chemicals formulated in the same manner. Plants ranged in height from 2 to 18 cm (1- to 4-leaf stage) for postemergence treatments. Plant species in the flooded paddy test consisted of rice (Oryza saliva), smallflower flatsedge (Cyperus difformis), duck salad (Heteranthera limosa) and barnyardgrass (Echinochloa crus-galli) grown to the 2-leaf stage for testing. Treated plants and controls were maintained in a greenhouse for 12 to 14 days, after which time all species were compared to controls and visually evaluated. Plant response ratings, summarized in Table C, are based on a scale of 0 to 100 where 0 is no effect and 100 is complete control. A dash (-) response means no test result.

[3] = test system: kochia (Kochia scoparia); experiment: Test C postemergence
Description: as §1, §2

[4] = test system: lambsquarters (Chenopodium album); experiment: Test C postemergence
Description: as §1, §2

[5] = test system: chickweed (Stellaria media); experiment: Test C postemergence
Description: as §1, §2

[6] = test system: velvetleaf (Abutilon theophrasti); experiment: Test C postemergence
Description: as §1, §2

[7] = test system: bermudagrass (Cynodon dactylon); experiment: Test C postemergence
Description: as §1, §2

[8] = test system: yellow nutsedge (Cyperus esculentus); experiment: Test C postemergence
Description: as §1, §2

[9] = test system: goosegrass (Eleusine indica); experiment: Test C postemergence
Description: as §1, §2

[10] = test system: corn (Zea mays); experiment: Test C postemergence
Description: as §1, §2

[11] = test system: pigweed (Amaranthus retroflexus); experiment: Test C postemergence
Description: as §1, §2

[12] = test system: johnsongrass (Sorghum halepense); experiment: Test C postemergence
Description: as §1, §2

[13] = test system: common ragweed (Ambrosia elatior); experiment: Test C postemergence
Description: as §1, §2

[14] = test system: soybean (Glycine max); experiment: Test C postemergence
Description: as §1, §2

[15] = test system: crabgrass (Digitaria sanguinalis); experiment: Test C postemergence
Description: as §1, §2

[16] = test system: Surinam grass (Brachiaria decumbens); experiment: Test C postemergence
Description: as §1, §2

[17] = test system: cocklebur (Xanthium strumarium); experiment: Test C postemergence
Description: as §1, §2

[18] = Rate 125 g/ha, scale 0 to 100, 0 no effect, 100 complete control
[19] = Rate 250 g/ha, scale 0 to 100 (0 no effect, 100 complete control)
[20] = Rate 500 g/ha, scale 0 to 100 (0 no effect, 100 complete control)

CCC(C)c1ccn(C2SCN(c3cccc(OC(F)(F)F)c3)C2=O)n1 (centres unmarked) [Compound 40]
50: Plant response rating, Kochia [3, 18] | Plant response rating, Lambsquarters [4, 19] | Plant response rating, Pigweed [11, 19] | Plant response rating, Pigweed [11, 20]
70: Plant response rating, Ragweed, Common ([1]; Preemergence, Rate 500 g/ha, scale 0 to 100) | Plant response rating, Kochia [3, 20] | Plant response rating, Lambsquarters [4, 20] | Plant response rating, Bermudagrass [7, 20]
30: Plant response rating (0 to 100), Ragweed, Common ([1]; preemergence, Rate 250 g/ha, visual evaluation after 12 to 14 days) | Plant response rating, Corn [10, 20] | Plant response rating, Johnsongrass [12, 20] | Plant response rating, Ragweed, Common [13, 19]
60: Plant response rating, Kochia [3, 19] | Plant response rating, Bermudagrass [7, 19]
20: Plant response rating, Kochia ([3]; Rate 62 g/ha, scale 0 to 100) | Plant response rating, Lambsquarters ([4]; Rate 62 g/ha, scale 0 to 100) | Plant response rating, Velvetleaf [6, 20] | Plant response rating, Bermudagrass [7, 18] | Plant response rating, Nutsedge [8, 20] | Plant response rating, Goosegrass [9, 20] | Plant response rating, Corn [10, 19] | Plant response rating, Johnsongrass [12, 19]
0: Plant response rating, Ragweed, Common ([1]; Rate 62 g/ha, scale 0 to 100, 0 no effect, 100 complete control) | Plant response rating, Ragweed, Common ([1]; preemergence, Rate 125 g/ha, scale 0 to 100, 0 no effect, 100 complete control) | Plant response rating, Foxtail, Giant ([2]; Rate 62 g/ha, scale 0 to 100) | Plant response rating, Foxtail, Giant [2, 18] | Plant response rating, Foxtail, Giant [2, 19] | Plant response rating, Foxtail, Giant [2, 20] | Plant response rating, Chickweed ([5]; Rate 62 g/ha, scale 0 to 100) | Plant response rating, Chickweed [5, 18] | Plant response rating, Chickweed [5, 19] | Plant response rating, Chickweed [5, 20] | Plant response rating, Velvetleaf ([6]; Rate 62 g/ha, scale 0 to 100) | Plant response rating, Velvetleaf [6, 18] | Plant response rating, Velvetleaf [6, 19] | Plant response rating, Bermudagrass ([7]; Rate 62 g/ha, scale 0 to 100) | Plant response rating, Nutsedge ([8]; Rate 62 g/ha, scale 0 to 100) | Plant response rating, Nutsedge [8, 18] | Plant response rating, Nutsedge [8, 19] | Plant response rating, Goosegrass ([9]; Rate 62 g/ha, scale 0 to 100) | Plant response rating, Goosegrass [9, 18] | Plant response rating, Goosegrass [9, 19] | Plant response rating, Corn ([10]; Rate 62 g/ha, scale 0 to 100) | Plant response rating, Corn [10, 18] | Plant response rating, Pigweed ([11]; Rate 62 g/ha, scale 0 to 100) | Plant response rating, Pigweed [11, 18] | Plant response rating, Johnsongrass ([12]; Rate 62 g/ha, scale 0 to 100) | Plant response rating, Johnsongrass [12, 18] | Plant response rating, Ragweed, Common ([13]; Rate 62 g/ha, scale 0 to 100) | Plant response rating, Ragweed, Common [13, 18] | Plant response rating, Soybean ([14]; Rate 62 g/ha, scale 0 to 100) | Plant response rating, Soybean [14, 18] | Plant response rating, Soybean [14, 19] | Plant response rating, Soybean [14, 20] | Plant response rating, Crabgrass ([15]; Rate 62 g/ha, scale 0 to 100) | Plant response rating, Crabgrass [15, 18] | Plant response rating, Crabgrass [15, 19] | Plant response rating, Crabgrass [15, 20] | Plant response rating, Surinam grass ([16]; Rate 62 g/ha, scale 0 to 100) | Plant response rating, Surinam grass [16, 18] | Plant response rating, Surinam grass [16, 19] | Plant response rating, Surinam grass [16, 20] | Plant response rating, Cocklebur ([17]; Rate 62 g/ha, scale 0 to 100) | Plant response rating, Cocklebur [17, 18] | Plant response rating, Cocklebur [17, 19] | Plant response rating, Cocklebur [17, 20]
40: Plant response rating, Lambsquarters [4, 18] | Plant response rating, Ragweed, Common [13, 20]
